Assay results reported in ChEMBL document CHEMBL1201862, “PubChem BioAssay data set” (2004).
Each block holds one molecule with its values, some of them ahead of it. Calls of active or inactive are those of the source.

Key:
[1] = biological target: T1, Short transient receptor potential channel 4 (Mus musculus, UniProt Q9QUQ5); assay: block of DAMGO-driven TRPC4 calcium entry – cell-based, HEK293 TRPC4/mu-opioid, Fluo-4 calcium, dose response (AID 434942); type: functional;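 note: potency of inhibitors blocking the TRPC4 calcium response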
T1 sequence (Q9QUQ5 whole entry): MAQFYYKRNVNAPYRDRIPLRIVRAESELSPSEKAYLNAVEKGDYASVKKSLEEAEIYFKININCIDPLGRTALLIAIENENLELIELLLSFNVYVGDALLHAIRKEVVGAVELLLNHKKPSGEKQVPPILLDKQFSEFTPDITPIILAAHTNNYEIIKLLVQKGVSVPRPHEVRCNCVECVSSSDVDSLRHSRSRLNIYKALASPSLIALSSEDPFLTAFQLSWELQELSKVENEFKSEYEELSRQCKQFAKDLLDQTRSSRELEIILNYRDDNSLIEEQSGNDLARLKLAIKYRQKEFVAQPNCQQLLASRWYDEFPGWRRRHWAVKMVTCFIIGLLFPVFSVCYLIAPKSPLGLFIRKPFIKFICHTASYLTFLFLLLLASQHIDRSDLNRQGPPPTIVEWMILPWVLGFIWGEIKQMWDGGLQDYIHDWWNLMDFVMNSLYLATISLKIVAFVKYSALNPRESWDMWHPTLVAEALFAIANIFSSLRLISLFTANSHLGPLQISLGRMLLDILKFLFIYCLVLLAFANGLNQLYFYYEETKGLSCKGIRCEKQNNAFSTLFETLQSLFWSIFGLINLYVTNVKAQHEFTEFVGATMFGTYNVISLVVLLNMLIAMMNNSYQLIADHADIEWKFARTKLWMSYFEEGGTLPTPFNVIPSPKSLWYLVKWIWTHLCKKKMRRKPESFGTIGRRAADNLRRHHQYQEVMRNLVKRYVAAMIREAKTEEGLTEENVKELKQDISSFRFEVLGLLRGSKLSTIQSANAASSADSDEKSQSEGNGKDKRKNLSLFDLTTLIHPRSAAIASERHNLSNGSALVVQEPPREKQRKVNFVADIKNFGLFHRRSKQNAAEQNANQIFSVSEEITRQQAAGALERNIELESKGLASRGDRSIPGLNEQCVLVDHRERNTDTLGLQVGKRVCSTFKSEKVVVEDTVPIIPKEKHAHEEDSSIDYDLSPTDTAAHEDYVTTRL

[2] = biological target: Glucose-6-phosphate 1-dehydrogenase (Homo sapiens, UniProt P11413); assay: inhibition of Homo sapiens G6PD, dose series – biochemical, fluorescence, selectivity assay for P. falciparum G6PD inhibitor project, dose response (AID 504792); type: functional
Large T antigen = Large T antigen (Simian virus 40, UniProt P03070); type: functional, Betapolyomavirus macacae;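 note: Confirmatory-stage PubChem screen for compounds that inhibit SV40 T antigen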
[3] = biological target: T2, Zinc finger protein mex-5 (Caenorhabditis elegans, UniProt Q9XUB2); assay: potency of MEX-5 RNA-binding blockers – biochemical, C. elegans, fluorescence polarization, dose response (AID 1960)
T2 sequence (Q9XUB2 whole entry): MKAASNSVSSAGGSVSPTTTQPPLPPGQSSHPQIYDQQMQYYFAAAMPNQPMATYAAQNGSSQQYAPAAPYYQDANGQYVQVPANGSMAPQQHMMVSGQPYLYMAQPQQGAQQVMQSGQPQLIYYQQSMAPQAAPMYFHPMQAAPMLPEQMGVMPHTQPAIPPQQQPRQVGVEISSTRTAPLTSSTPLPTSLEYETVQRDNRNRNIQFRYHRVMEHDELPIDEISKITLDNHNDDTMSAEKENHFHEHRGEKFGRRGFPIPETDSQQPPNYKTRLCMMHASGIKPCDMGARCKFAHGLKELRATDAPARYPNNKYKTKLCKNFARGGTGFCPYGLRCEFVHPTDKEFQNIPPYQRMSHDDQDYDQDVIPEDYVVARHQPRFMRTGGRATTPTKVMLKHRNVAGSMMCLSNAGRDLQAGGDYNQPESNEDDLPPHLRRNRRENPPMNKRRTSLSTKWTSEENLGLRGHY

[4] = biological target: T3, RNA-binding protein pos-1 (Caenorhabditis elegans, UniProt G5EF15); assay: disruptors of C. elegans POS-1 RNA interaction – biochemical, fluorescence polarization, dose response (AID 1964);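 note: purified POS-1 fused to maltose binding protein made in E. coli; potency of compounds blocking POS-1 binding to fluorescent RNA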
T3 sequence (G5EF15 whole entry): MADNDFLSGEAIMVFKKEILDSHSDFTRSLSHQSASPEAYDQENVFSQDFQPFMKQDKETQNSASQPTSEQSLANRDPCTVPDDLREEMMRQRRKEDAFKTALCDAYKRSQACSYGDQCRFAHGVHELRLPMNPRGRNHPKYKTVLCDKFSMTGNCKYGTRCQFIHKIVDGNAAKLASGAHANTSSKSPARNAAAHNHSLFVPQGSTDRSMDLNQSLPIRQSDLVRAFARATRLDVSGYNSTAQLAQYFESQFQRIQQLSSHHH

[5] = biological target: T4, Low molecular weight phosphotyrosine protein phosphatase (Homo sapiens, UniProt P24666); type: functional; conditions: read-out: IC50_Mean;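 note: Dose-response confirmation assay measuring inhibition of LMPTP enzyme activity by fluorescence intensity read-out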
T4 sequence (P24666 whole entry): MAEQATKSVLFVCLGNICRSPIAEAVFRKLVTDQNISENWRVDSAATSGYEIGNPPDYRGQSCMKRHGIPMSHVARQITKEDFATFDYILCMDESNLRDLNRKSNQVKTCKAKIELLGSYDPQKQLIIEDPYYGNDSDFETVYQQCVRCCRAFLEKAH

[6] = biological target: T5, Ubiquitin-conjugating enzyme E2 N (Homo sapiens, UniProt P61088); type: functional;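 note: Dose-response confirmation in a TR-FRET assay detecting UBC13-driven polyubiquitin chain formation, inhibition measured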
T5 sequence (P61088 whole entry): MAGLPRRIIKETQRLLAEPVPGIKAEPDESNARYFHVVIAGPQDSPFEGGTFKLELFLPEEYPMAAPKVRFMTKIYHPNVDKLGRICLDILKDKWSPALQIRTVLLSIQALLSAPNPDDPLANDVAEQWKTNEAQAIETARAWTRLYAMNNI

[7] = intracellular Trypanosoma cruzi inhibitors in host cells – cell-based, plate reader, cherry-pick samples, set 3, dose response (AID 651818); type: functional;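 note: compounds incubated with infected cells for about four days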
Fatty acid synthase [8] = biological target: T6, Fatty acid synthase (Homo sapiens, UniProt P49327); assay: inhibition of human FAS-TE enzyme activity – biochemical, kinetic fluorescence intensity, dose response (AID 624326); type: functional;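 note: rate of fluorescence rise from hydrolysis of a fluorogenic O-methyl fluorescein ester substrate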
Fatty acid synthase [9] = biological target: T6, Fatty acid synthase; assay: inhibition of human FAS-TE enzyme activity – biochemical, endpoint fluorescence intensity, uHTS hits, dose response (AID 624327); type: functional;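 note: fluorescence from hydrolysis of an O-methyl fluorescein acyl ester substrate by the enzyme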
[10] = viability of uninfected HEp-2 cells – cell-based, HTS, cytotoxicity control for RSV inhibitor project, dose response (AID 2410); type: functional; conditions: human respiratory syncytial virus
Steroidogenic factor 1 = Steroidogenic factor 1 (Homo sapiens, UniProt Q13285); assay: Counterscreen for inverse agonists of the liver receptor homolog-1 (LRH-1; NR5A2): Luminescence-based cell-based high throughput dose response assay to identify inverse agonists of the Steroidogenic Factor 1 Nuclear Receptor (SF1; NR5A1).; type: functional
[11] = nonselective StAR promoter luciferase inhibitors – cell-based, luminescence, luciferase reporter, counter-screen for LRH-1 inverse agonist project, dose response (AID 651969); type: functional
[12] = biological target: Nuclear receptor subfamily 5 group A member 2 (Homo sapiens, UniProt O00482); type: functional, cell-based;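 note: HEK293T cells transfected with LRH-1 and a StAR promoter luciferase reporter; potency for inhibitors that lower LRH-1 driven reporter light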
[13] = blockers of HIV-1 ZM109 envelope-driven cell-cell fusion – HeLa effector, CEM target cells, luciferase, cherry-pick, dose response (AID 652058); type: functional, cell-based;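 note: luciferase signal from HIV-1 Env mediated cell-cell fusion of effector and target cells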
[14] = blockers of HIV-1 envelope-mediated cell-cell fusion – cherry-pick, dose response (AID 652057); type: functional, cell-based
[15] = fluconazole-exposed Candida albicans growth modulators – fluorescence, retest, confirmation (AID 2467); type: functional, cell-based
[16] = NIH-3T3 fibroblast cytotoxicity, dose response, cytotoxicity control, cell-based, fluorescence, Alamar Blue, secondary assay (AID 2327); type: functional;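 note: NIH-3T3 mouse fibroblasts cultured with fluconazole at 8 µg/mL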

Nuclear receptor subfamily 5 group A member 2, sequence (O00482 whole entry, the tested form may be a part): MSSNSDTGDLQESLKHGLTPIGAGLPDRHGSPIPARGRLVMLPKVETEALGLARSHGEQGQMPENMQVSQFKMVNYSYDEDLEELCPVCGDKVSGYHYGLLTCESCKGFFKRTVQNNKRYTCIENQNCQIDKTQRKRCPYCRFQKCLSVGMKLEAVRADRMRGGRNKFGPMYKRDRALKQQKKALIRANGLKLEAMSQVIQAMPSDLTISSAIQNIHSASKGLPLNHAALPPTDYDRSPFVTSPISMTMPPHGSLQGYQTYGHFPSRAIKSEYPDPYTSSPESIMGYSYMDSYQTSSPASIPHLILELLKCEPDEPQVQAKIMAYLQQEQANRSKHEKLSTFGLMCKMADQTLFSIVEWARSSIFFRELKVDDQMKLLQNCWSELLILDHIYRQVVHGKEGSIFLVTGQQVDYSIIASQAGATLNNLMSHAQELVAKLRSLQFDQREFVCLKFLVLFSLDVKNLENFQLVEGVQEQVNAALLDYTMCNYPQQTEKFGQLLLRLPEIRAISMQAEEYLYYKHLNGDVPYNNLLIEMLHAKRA
T6 sequence (P49327 whole entry): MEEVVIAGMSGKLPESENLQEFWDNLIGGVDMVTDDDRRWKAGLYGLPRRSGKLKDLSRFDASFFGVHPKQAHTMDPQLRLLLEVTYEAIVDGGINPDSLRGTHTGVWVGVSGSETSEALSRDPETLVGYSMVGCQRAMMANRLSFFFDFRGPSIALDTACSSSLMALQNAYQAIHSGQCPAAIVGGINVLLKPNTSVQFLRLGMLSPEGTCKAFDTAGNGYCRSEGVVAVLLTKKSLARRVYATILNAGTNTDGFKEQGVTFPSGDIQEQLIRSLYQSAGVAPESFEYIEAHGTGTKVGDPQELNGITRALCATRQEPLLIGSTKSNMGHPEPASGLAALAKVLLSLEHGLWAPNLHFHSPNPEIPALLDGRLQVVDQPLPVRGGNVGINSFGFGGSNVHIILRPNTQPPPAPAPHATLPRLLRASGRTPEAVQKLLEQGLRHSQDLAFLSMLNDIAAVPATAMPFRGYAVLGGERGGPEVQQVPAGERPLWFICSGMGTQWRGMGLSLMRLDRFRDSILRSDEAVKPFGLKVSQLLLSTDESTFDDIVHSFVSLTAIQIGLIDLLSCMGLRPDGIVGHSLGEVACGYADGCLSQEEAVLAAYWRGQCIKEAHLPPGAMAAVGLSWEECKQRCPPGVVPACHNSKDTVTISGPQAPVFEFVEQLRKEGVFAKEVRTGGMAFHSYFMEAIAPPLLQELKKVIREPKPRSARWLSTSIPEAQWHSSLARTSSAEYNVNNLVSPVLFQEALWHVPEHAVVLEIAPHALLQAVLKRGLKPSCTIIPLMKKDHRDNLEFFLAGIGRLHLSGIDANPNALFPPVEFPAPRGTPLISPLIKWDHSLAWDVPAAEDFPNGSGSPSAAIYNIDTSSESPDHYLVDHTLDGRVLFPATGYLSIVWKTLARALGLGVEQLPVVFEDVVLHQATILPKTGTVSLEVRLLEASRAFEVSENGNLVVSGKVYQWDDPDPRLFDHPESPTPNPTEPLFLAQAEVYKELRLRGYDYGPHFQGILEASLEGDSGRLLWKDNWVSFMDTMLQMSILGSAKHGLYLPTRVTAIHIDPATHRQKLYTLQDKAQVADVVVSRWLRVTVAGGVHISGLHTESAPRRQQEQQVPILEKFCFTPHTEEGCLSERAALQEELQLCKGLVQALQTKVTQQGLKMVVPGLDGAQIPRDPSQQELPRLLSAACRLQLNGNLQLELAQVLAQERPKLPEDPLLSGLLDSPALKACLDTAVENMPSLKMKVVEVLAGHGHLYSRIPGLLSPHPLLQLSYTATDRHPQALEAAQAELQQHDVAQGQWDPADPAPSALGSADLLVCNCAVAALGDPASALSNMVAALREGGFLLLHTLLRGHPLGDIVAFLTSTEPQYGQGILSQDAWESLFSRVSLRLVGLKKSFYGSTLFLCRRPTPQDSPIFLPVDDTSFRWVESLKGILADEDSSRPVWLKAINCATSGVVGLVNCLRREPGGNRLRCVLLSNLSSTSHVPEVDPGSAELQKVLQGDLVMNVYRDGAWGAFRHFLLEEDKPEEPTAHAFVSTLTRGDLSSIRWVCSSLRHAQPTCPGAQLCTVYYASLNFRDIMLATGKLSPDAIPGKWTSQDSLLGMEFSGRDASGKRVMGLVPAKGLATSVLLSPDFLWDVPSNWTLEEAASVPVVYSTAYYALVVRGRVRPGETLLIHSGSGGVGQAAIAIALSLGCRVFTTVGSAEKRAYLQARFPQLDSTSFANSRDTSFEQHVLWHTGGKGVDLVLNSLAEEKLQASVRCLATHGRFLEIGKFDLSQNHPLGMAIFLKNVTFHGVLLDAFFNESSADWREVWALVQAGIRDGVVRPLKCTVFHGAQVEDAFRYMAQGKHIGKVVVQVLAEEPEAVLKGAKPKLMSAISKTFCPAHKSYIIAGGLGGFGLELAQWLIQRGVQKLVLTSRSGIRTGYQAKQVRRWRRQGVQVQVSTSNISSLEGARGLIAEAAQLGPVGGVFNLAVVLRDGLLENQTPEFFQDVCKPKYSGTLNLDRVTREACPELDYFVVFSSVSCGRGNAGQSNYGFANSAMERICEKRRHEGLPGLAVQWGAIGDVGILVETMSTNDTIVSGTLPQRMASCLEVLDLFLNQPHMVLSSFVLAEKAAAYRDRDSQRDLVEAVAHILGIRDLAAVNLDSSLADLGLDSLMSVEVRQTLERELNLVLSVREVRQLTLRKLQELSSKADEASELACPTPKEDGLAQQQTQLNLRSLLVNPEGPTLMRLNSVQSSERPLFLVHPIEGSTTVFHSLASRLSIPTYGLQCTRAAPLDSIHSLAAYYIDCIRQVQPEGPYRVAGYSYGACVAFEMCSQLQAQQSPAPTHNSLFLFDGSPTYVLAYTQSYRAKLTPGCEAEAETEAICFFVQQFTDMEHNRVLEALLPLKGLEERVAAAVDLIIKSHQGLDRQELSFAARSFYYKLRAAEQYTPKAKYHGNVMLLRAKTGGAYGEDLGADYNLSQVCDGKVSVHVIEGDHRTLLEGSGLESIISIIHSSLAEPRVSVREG
Steroidogenic factor 1, sequence (Q13285 whole entry): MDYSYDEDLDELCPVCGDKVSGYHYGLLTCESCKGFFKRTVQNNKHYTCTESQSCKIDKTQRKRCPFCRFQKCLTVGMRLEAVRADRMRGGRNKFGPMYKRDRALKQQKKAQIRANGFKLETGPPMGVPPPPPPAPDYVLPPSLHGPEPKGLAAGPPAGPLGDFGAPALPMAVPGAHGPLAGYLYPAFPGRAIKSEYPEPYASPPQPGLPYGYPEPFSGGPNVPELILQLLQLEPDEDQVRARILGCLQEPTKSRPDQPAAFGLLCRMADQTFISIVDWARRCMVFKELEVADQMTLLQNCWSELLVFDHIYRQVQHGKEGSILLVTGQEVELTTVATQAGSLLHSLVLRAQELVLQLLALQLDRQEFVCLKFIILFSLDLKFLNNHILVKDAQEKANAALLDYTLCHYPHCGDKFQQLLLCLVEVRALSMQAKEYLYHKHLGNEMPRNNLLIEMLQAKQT
Glucose-6-phosphate 1-dehydrogenase, sequence (P11413 whole entry): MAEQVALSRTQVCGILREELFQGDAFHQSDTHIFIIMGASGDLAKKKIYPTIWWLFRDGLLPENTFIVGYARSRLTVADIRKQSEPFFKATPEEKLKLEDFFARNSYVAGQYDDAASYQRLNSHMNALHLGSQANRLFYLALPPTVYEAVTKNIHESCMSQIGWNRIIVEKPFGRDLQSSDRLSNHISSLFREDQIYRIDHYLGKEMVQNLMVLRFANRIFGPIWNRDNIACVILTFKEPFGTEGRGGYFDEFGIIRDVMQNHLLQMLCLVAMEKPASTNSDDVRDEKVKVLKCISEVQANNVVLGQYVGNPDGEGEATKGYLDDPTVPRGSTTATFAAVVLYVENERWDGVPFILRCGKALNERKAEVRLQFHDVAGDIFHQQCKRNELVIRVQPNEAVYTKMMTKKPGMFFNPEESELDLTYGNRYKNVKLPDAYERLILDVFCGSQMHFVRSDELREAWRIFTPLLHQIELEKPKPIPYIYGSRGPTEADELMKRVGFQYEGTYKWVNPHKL
Large T antigen, sequence (P03070 whole entry): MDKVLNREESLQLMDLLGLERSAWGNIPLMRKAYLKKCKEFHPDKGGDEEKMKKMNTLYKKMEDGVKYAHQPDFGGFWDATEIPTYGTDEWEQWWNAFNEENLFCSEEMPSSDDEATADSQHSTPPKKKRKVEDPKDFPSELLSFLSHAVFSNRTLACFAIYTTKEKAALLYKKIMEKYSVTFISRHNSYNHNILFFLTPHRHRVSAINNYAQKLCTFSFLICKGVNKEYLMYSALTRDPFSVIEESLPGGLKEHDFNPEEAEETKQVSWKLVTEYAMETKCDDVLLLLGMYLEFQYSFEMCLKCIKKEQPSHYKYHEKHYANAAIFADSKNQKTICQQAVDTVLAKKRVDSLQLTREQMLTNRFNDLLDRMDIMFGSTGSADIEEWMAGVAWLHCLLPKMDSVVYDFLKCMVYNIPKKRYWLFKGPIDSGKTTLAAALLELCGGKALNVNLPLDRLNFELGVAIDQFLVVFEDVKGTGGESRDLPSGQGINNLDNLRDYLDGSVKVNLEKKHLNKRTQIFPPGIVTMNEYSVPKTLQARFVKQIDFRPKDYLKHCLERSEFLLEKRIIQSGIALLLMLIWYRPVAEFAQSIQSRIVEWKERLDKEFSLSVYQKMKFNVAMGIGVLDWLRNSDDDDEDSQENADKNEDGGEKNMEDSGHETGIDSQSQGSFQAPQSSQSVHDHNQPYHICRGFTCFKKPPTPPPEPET

- EC50 [1]: 1.06 µM (active)
SMILES: CCc1ccccc1N=C(S)N(CCCN(C)C)Cc1cc2cc3c(cc2nc1O)OCO3

- EC50 [1]: 3.76 µM (active)
SMILES: CC(C)(C)NCc1ccccc1OCc1cccs1

SMILES: O=C(Cc1ccccc1)NCC(=O)OCC(=O)c1ccc([N+](=O)[O-])cc1
- IC50 [2]: > 80 µM (inactive)

- IC50 (Large T antigen): 13.8 µM (active)
- EC50 [3]: 6.35 µM (active)
- EC50 [4]: 24 µM (active)
- IC50 [2]: > 80 µM (inactive)
SMILES: O=C(CCc1ccc(O)c(O)c1)N/N=C/c1cc2c(cc1[N+](=O)[O-])OCO2

- IC50 [5]: 7.49 µM (active)
SMILES: O=C(Nc1cccc(-c2cn3ccccc3n2)c1)c1cc2ccccc2oc1=O

- IC50 [6]: > 20 µM (inactive)
SMILES: COc1ccc2[nH]c(SCc3nc(N)nc(Nc4ccccc4)n3)nc2c1

SMILES: C[C@@H]1CN([C@H](C)CO)C(=O)Cc2cc(NC(=O)Nc3ccc(C(F)(F)F)cc3)ccc2O[C@H]1CN(C)Cc1ccccc1
- AC50 [7]: 4.06 µM (active)

SMILES: C[C@H](CO)N1C[C@H](C)[C@@H](CN(C)Cc2ccc(C(F)(F)F)cc2)Oc2c(NC(=O)c3nc4ccccc4s3)cccc2C1=O
- AC50 [7]: 1.05 µM (active)

SMILES: C[C@H]1CN([C@@H](C)CO)C(=O)c2cccc(NS(=O)(=O)c3ccccc3)c2O[C@H]1CN(C)Cc1ccc(C(=O)Nc2ccccc2N)cc1
- AC50 [7]: 3.48 µM (active)

- IC50 (Fatty acid synthase [8]): 1.17 µM (active)
- IC50 (Fatty acid synthase [9]): 1.26 µM (active)
SMILES: O=C(CCn1c(=O)c2ccccc2n(Cc2cccc([N+](=O)[O-])c2)c1=O)N1CCc2ccccc2C1
- CC50 [10]: > 50 µM (active)

- IC50 (Fatty acid synthase [8]): 3 µM (active)
- IC50 (Fatty acid synthase [9]): 3.26 µM (active)
SMILES: CC(C)(C)c1ccc(/C=C2\CCn3c2nc2cc(C(=O)O)ccc2c3=O)cc1

SMILES: CC(=O)Nc1ccc(NC(=O)CSc2nnnn2C2CCCCC2)cc1
- IC50 (Steroidogenic factor 1): 7.58 µM (active)
- IC50 [11]: 35.9 µM (inactive)
- IC50 [12]: 11.8 µM (inactive)

SMILES: C[C@@H]1CN([C@@H](C)CO)S(=O)(=O)c2ccc(C3=CCCC3)cc2O[C@@H]1CN(C)C(=O)C1CCOCC1
- AC50 [13]: 10.2 µM (active)
- AC50 [14]: 59 µM (active)

SMILES: Cc1ccc(NC(=O)CSc2nc3nc(O)cc(O)c3s2)c(Br)c1
- IC50 (Steroidogenic factor 1): 9.35 µM (active)
- IC50 [11]: 35.9 µM (inactive)
- IC50 [12]: 35.9 µM (inactive)

SMILES: CC(C)(C)CC(=O)Nc1nnc(C(F)(F)F)s1
- EC50 [15]: 0.13 µM (active)
- EC50 [16]: > 160 µM (inactive)

SMILES: COc1ccc(CCn2c(C)cc(C(=O)COC(=O)c3ccc(O)cc3O)c2C)cc1
- IC50 (Steroidogenic factor 1): 5.82 µM (active)
- IC50 [11]: 35.9 µM (inactive)
- IC50 [12]: 35.9 µM (inactive)
